Laboratory results reported in EP0726263A2, “Herbicidal (1,3,4)oxadiazoles and thiadiazoles” (American Cyanamid Company, priority 1995, dated 1996).

Legend:
Assay type in all cases: in vivo
[1] = tested on: Matricaria inodora; test: Herbicidal activity, preemergence test; conditions: pre; sprayed onto soil, 800 g of active material per hectare; evaluated 3 weeks after treatment
Method: (§1) To evaluate their herbicidal activity, compounds according to the invention are tested using a representative range of plants: TRZAW Triticum aestivum HORVW Hordeum vulgare ZEAMX Zea mays GOSHI Gossypium hirsutum HELAN Helianthus annuus GLYMA Glycine max ALOMY Alopecurus myosuroides SETVI Setaria viridis ECHCG Echinochloa crus-galli GALAP Galium aparine STEME Stellaria media VERPE Veronica persica VIOAR Viola arvensis IPOHE Ipomoea hederacea LAMPU Lamium purpureum PAPRH Papaver rhoeas MATIN Matricaria inodora AMARE Amaranthus retroflexus ABUTH Abutilon theophrasti AMBEL Ambrosia artemisifolia CHEAL Chenopodium album
(§2) The tests fall into two categories, preemergence and postemergence. The preemergence tests involve spraying a liquid formulation of the compound onto the soil in which the seeds have recently been sown. The postemergence tests involve spraying a liquid formulation of the compound onto seedling plants.
(§3) The soil used in the tests is a prepared horticultural loam.
(§4) The formulations used in the tests are prepared from solutions of the test compounds in acetone containing 0.4% by weight of an alkylphenol/ethylene oxide condensate available under the trade mark TRITON X-155. These acetone solutions are diluted with water and the resulting formulations applied at dosage levels corresponding to 800 g of active material per hectare in a volume equivalent to 900 litres per hectare.
(§5) In the preemergence tests untreated sown soil and in the postemergence tests untreated soil bearing seedling plants are used as controls.
(§6) Results of herbicide evaluation are expressed on a rating scale (0-9). The scale is based upon a visual observation of plant stand, vigor, malformation, size, chlorosis, and general plant appearance as compared to a control. Preemergence and postemergence treatments are evaluated at 3 and 2 weeks after treatment, respectively.

[2] = tested on: Veronica persica; test: Herbicidal activity, preemergence test; conditions: pre; sprayed onto soil, 800 g of active material per hectare; evaluated 3 weeks after treatment
Method: as §1, §2, §3, §4, §5, §6

[3] = tested on: Galium aparine; test: Herbicidal activity, preemergence test; conditions: pre; sprayed onto soil, 800 g of active material per hectare; evaluated 3 weeks after treatment
Method: as §1, §2, §3, §4, §5, §6

[4] = tested on: Triticum aestivum; test: Herbicidal activity, preemergence test; conditions: pre; sprayed onto soil, 800 g of active material per hectare; evaluated 3 weeks after treatment
Method: as §1, §2, §3, §4, §5, §6

[5] = tested on: Alopecurus myosuroides; test: Herbicidal activity, preemergence test; conditions: pre; sprayed onto soil, 800 g of active material per hectare; evaluated 3 weeks after treatment
Method: as §1, §2, §3, §4, §5, §6

[6] = tested on: Abutilon theophrasti; test: Herbicidal activity, preemergence test; conditions: pre; sprayed onto soil, 800 g of active material per hectare; evaluated 3 weeks after treatment
Method: as §1, §2, §3, §4, §5, §6

[7] = tested on: Chenopodium album; test: Herbicidal activity, preemergence test; conditions: pre; sprayed onto soil, 800 g of active material per hectare; evaluated 3 weeks after treatment
Method: as §1, §2, §3, §4, §5, §6

[8] = tested on: Hordeum vulgare; test: Herbicidal activity, preemergence test; conditions: pre; sprayed onto soil, 800 g of active material per hectare; evaluated 3 weeks after treatment
Method: as §1, §2, §3, §4, §5, §6

[9] = tested on: Papaver rhoeas; test: Herbicidal activity, preemergence test; conditions: pre; sprayed onto soil, 800 g of active material per hectare; evaluated 3 weeks after treatment
Method: as §1, §2, §3, §4, §5, §6

[10] = tested on: Setaria viridis; test: Herbicidal activity, preemergence test; conditions: pre; sprayed onto soil, 800 g of active material per hectare; evaluated 3 weeks after treatment
Method: as §1, §2, §3, §4, §5, §6

[11] = tested on: Stellaria media; test: Herbicidal activity, preemergence test; conditions: pre; sprayed onto soil, 800 g of active material per hectare; evaluated 3 weeks after treatment
Method: as §1, §2, §3, §4, §5, §6

[12] = tested on: Amaranthus retroflexus; test: Herbicidal activity, preemergence test; conditions: pre; sprayed onto soil, 800 g of active material per hectare; evaluated 3 weeks after treatment
Method: as §1, §2, §3, §4, §5, §6

[13] = tested on: Lamium purpureum; test: Herbicidal activity, preemergence test; conditions: pre; sprayed onto soil, 800 g of active material per hectare; evaluated 3 weeks after treatment
Method: as §1, §2, §3, §4, §5, §6

[14] = tested on: Ambrosia artemisifolia; test: Herbicidal activity, preemergence test; conditions: pre; sprayed onto soil, 800 g of active material per hectare; evaluated 3 weeks after treatment
Method: as §1, §2, §3, §4, §5, §6

[15] = tested on: Glycine max; test: Herbicidal activity, preemergence test; conditions: pre; sprayed onto soil, 800 g of active material per hectare; evaluated 3 weeks after treatment
Method: as §1, §2, §3, §4, §5, §6

[16] = tested on: Gossypium hirsutum; test: Herbicidal activity, preemergence test; conditions: pre; sprayed onto soil, 800 g of active material per hectare; evaluated 3 weeks after treatment
Method: as §1, §2, §3, §4, §5, §6

[17] = tested on: Ipomoea hederacea; test: Herbicidal activity, preemergence test; conditions: pre; sprayed onto soil, 800 g of active material per hectare; evaluated 3 weeks after treatment
Method: as §1, §2, §3, §4, §5, §6

[18] = tested on: Zea mays; test: Herbicidal activity, preemergence test; conditions: pre; sprayed onto soil, 800 g of active material per hectare; evaluated 3 weeks after treatment
Method: as §1, §2, §3, §4, §5, §6

[19] = tested on: Matricaria inodora; test: Herbicidal activity, postemergence test; conditions: post; sprayed onto seedling plants, 800 g of active material per hectare; evaluated 2 weeks after treatment
Method: as §1, §2, §3, §4, §5, §6

[20] = tested on: Veronica persica; test: Herbicidal activity, postemergence test; conditions: post; sprayed onto seedling plants, 800 g of active material per hectare; evaluated 2 weeks after treatment
Method: as §1, §2, §3, §4, §5, §6

[21] = tested on: Galium aparine; test: Herbicidal activity, postemergence test; conditions: post; sprayed onto seedling plants, 800 g of active material per hectare; evaluated 2 weeks after treatment
Method: as §1, §2, §3, §4, §5, §6

[22] = tested on: Triticum aestivum; test: Herbicidal activity, postemergence test; conditions: post; sprayed onto seedling plants, 800 g of active material per hectare; evaluated 2 weeks after treatment
Method: as §1, §2, §3, §4, §5, §6

[23] = tested on: Alopecurus myosuroides; test: Herbicidal activity, postemergence test; conditions: post; sprayed onto seedling plants, 800 g of active material per hectare; evaluated 2 weeks after treatment
Method: as §1, §2, §3, §4, §5, §6

[24] = tested on: Abutilon theophrasti; test: Herbicidal activity, postemergence test; conditions: post; sprayed onto seedling plants, 800 g of active material per hectare; evaluated 2 weeks after treatment
Method: as §1, §2, §3, §4, §5, §6

[25] = tested on: Chenopodium album; test: Herbicidal activity, postemergence test; conditions: post; sprayed onto seedling plants, 800 g of active material per hectare; evaluated 2 weeks after treatment
Method: as §1, §2, §3, §4, §5, §6

[26] = tested on: Hordeum vulgare; test: Herbicidal activity, postemergence test; conditions: post; sprayed onto seedling plants, 800 g of active material per hectare; evaluated 2 weeks after treatment
Method: as §1, §2, §3, §4, §5, §6

[27] = tested on: Papaver rhoeas; test: Herbicidal activity, postemergence test; conditions: post; sprayed onto seedling plants, 800 g of active material per hectare; evaluated 2 weeks after treatment
Method: as §1, §2, §3, §4, §5, §6

[28] = tested on: Setaria viridis; test: Herbicidal activity, postemergence test; conditions: post; sprayed onto seedling plants, 800 g of active material per hectare; evaluated 2 weeks after treatment
Method: as §1, §2, §3, §4, §5, §6

[29] = tested on: Stellaria media; test: Herbicidal activity, postemergence test; conditions: post; sprayed onto seedling plants, 800 g of active material per hectare; evaluated 2 weeks after treatment
Method: as §1, §2, §3, §4, §5, §6

[30] = tested on: Amaranthus retroflexus; test: Herbicidal activity, postemergence test; conditions: post; sprayed onto seedling plants, 800 g of active material per hectare; evaluated 2 weeks after treatment
Method: as §1, §2, §3, §4, §5, §6

[31] = tested on: Lamium purpureum; test: Herbicidal activity, postemergence test; conditions: post; sprayed onto seedling plants, 800 g of active material per hectare; evaluated 2 weeks after treatment
Method: as §1, §2, §3, §4, §5, §6

[32] = tested on: Ambrosia artemisifolia; test: Herbicidal activity, postemergence test; conditions: post; sprayed onto seedling plants, 800 g of active material per hectare; evaluated 2 weeks after treatment
Method: as §1, §2, §3, §4, §5, §6

[33] = tested on: Glycine max; test: Herbicidal activity, postemergence test; conditions: post; sprayed onto seedling plants, 800 g of active material per hectare; evaluated 2 weeks after treatment
Method: as §1, §2, §3, §4, §5, §6

[34] = tested on: Gossypium hirsutum; test: Herbicidal activity, postemergence test; conditions: post; sprayed onto seedling plants, 800 g of active material per hectare; evaluated 2 weeks after treatment
Method: as §1, §2, §3, §4, §5, §6

[35] = tested on: Ipomoea hederacea; test: Herbicidal activity, postemergence test; conditions: post; sprayed onto seedling plants, 800 g of active material per hectare; evaluated 2 weeks after treatment
Method: as §1, §2, §3, §4, §5, §6

[36] = tested on: Zea mays; test: Herbicidal activity, postemergence test; conditions: post; sprayed onto seedling plants, 800 g of active material per hectare; evaluated 2 weeks after treatment
Method: as §1, §2, §3, §4, §5, §6

| Structure (SMILES) | MATIN control rating (0-9) [1] | VERPE control rating (0-9) [2] | GALAP control rating (0-9) [3] | TRZAW control rating (0-9) [4] | ALOMY control rating (0-9) [5] | ABUTH control rating (0-9) [6] | CHEAL control rating (0-9) [7] | HORVW control rating (0-9) [8] | PAPRH control rating (0-9) [9] | SETVI control rating (0-9) [10] | STEME control rating (0-9) [11] | AMARE control rating (0-9) [12] | LAMPU control rating (0-9) [13] | AMBEL control rating (0-9) [14] | GLXMA control rating (0-9) [15] | GOSHI control rating (0-9) [16] | IPOHE control rating (0-9) [17] | ZEAMX control rating (0-9) [18] | MATIN control rating (0-9) [19] | VERPE control rating (0-9) [20] | other results |
| --- | --- | --- | --- | --- | --- | --- | --- | --- | --- | --- | --- | --- | --- | --- | --- | --- | --- | --- | --- | --- | --- |
| C[C@H](NC(=O)c1nnc(C=Cc2ccccc2)o1)c1ccccc1 [Example 17] | 0 (no effect) | 3 (moderate effect) | 0 (no effect) | 0 (no effect) | 0 (no effect) | 0 (no effect) | 0 (no effect) | 0 (no effect) | 5 (definite injury) | 0 (no effect) | 0 (no effect) | 0 (no effect) | 0 (no effect) | 0 (no effect) | 0 (no effect) | 9 (complete kill) | 0 (no effect) | 0 (no effect) | 0 (no effect) | 3 (moderate effect) | GALAP control rating (0-9) [21]: 2 (slight effect); TRZAW control rating (0-9) [22]: 0 (no effect); ALOMY control rating (0-9) [23]: 0 (no effect); ABUTH control rating (0-9) [24]: 1 (trace effect); CHEAL control rating (0-9) [25]: 5 (definite injury); HORVW control rating (0-9) [26]: 0 (no effect); PAPRH control rating (0-9) [27]: 5 (definite injury); SETVI control rating (0-9) [28]: 0 (no effect); STEME control rating (0-9) [29]: 0 (no effect); AMARE control rating (0-9) [30]: 4 (injury); LAMPU control rating (0-9) [31]: 6 (herbicidal effect); AMBEL control rating (0-9) [32]: 0 (no effect); GLXMA control rating (0-9) [33]: 0 (no effect); GOSHI control rating (0-9) [34]: 3 (moderate effect); IPOHE control rating (0-9) [35]: 1 (trace effect); ZEAMX control rating (0-9) [36]: 1 (trace effect) |
| COc1ccc(-c2nnc(C(=O)N[C@@H](C)c3ccccc3)o2)cc1 [Example 19] | 7 (good herbicidal effect) | 9 (complete kill) | 0 (no effect) | 0 (no effect) | 0 (no effect) | 1 (trace effect) | 9 (complete kill) | 0 (no effect) | 9 (complete kill) | 7 (good herbicidal effect) | 6 (herbicidal effect) | 9 (complete kill) | 8 (approaching complete kill) | 0 (no effect) | 0 (no effect) | 0 (no effect) | 0 (no effect) | 0 (no effect) | 6 (herbicidal effect) | 9 (complete kill) | GALAP control rating (0-9) [21]: 5 (definite injury); TRZAW control rating (0-9) [22]: 2 (slight effect); ALOMY control rating (0-9) [23]: 3 (moderate effect); ABUTH control rating (0-9) [24]: 9 (complete kill); CHEAL control rating (0-9) [25]: 8 (approaching complete kill); HORVW control rating (0-9) [26]: 3 (moderate effect); PAPRH control rating (0-9) [27]: 7 (good herbicidal effect); SETVI control rating (0-9) [28]: 9 (complete kill); STEME control rating (0-9) [29]: 8 (approaching complete kill); AMARE control rating (0-9) [30]: 8 (approaching complete kill); LAMPU control rating (0-9) [31]: 8 (approaching complete kill); AMBEL control rating (0-9) [32]: 7 (good herbicidal effect); GLXMA control rating (0-9) [33]: 4 (injury); GOSHI control rating (0-9) [34]: 9 (complete kill); IPOHE control rating (0-9) [35]: 6 (herbicidal effect); ZEAMX control rating (0-9) [36]: 3 (moderate effect) |
